{
  "source": "paper PMC8546892",
  "about": "(Acta Pharmaceutica Sinica. B, 2021)",
  "system": "GSK-3β",
  "test": "Immunoblot of GSK-3β in Trib3-silenced AMs with MG132 or 3MA",
  "type": "cell-based, mouse",
  "details": "immunoblots, Fig. S4C",
  "note": "Residues, ends and D or L forms follow the SMILES beside them. *: point of attachment. Cbz = O=C(OCc1ccccc1)*",
  "data": [
    {"smiles": "CC(C)C[C@@H](C=O)NC(=O)[C@H](CC(C)C)NC(=O)[C@H](CC(C)C)NC(=O)OCc1ccccc1", "note": "[MG132] (Cbz-Leu-Leu-Leu-aldehyde)", "values": [
      {"measurement": "Trib3 depletion-induced reduction in GSK-3β expression", "result": "reversed"}
    ]}
  ]
}
